Values after ≈ are worked out from the molar mass of the structure shown.

The subject of one data set is Anas platyrhynchos. The settings on record: for LD50: oral, mortality.
In another data set the test system is Apis mellifera. The note with it: acute; duration: 48 hours; oral; unspecified; mortality.
The test system of the next data set is Bird. The note with it: acute; oral; unspecified; mortality.
In a further data set the test system is Canidae. The settings on record: oral, Dog Other, organ weight.
A further data set relates to Colinus virginianus. The settings on record: for LD50: acute, oral, mortality.
The subject of the next data set is Trichogramma cacoeciae. The note with it: not reported; mortality.

Broadly, the NOAEL is the highest tested level that showed no adverse finding. On to `COc1ccc(C(=CC(=O)N2CCOCC2)c2ccc(Cl)cc2)cc1OC` [Dimethomorph], for which the LD50 in the data set on Anas platyrhynchos (acute, unspecified) is more than 2000 mg/kg; in the data set with Anas platyrhynchos (short-term, feed), more than 938 mg/kg-day; in the data set with Apis mellifera it was more than 32.4 µg/piece; in the data set on Bird, 3900 mg/kg; with Colinus virginianus (diet), more than 728 mg/kg-day; in the data set on Colinus virginianus, more than 2000 mg/kg. Besides, the NOEL in the data set on Anas platyrhynchos (reproductive) amounted to 78.4 mg/kg-day; in the data set on Colinus virginianus (reproduction developmental) it was 58.4 mg/kg-day. Further, the no observed adverse effect level (NOAEL) in the data set on Canidae (chronic, duration: 1 years, M/F) amounted to 4.9 mg/kg-day; in the data set with Canidae (subchronic, duration: 90 days) it was 15 mg/kg-day; in the data set with Rattus norvegicus (developmental, development) it was 60 mg/kg-day; with Rattus norvegicus (subchronic, duration: 90 days, oral) it was 16 mg/kg-day. Moreover, the LC50 is 3.4 µg/mL (≈ 8.77 µM) in the data set with Oncorhynchus mykiss (acute, duration: 96 hours, mortality) and more than 1000 mg/kg in the data set with Tagia sp. (acute, duration: 14 days, mortality). Besides, the NOEC is 0.056 mg/L with Oncorhynchus mykiss (chronic/long-term, duration: 96 days, development) and not below 120 mg/kg in the data set on Tagia sp. (chronic/long-term, duration: 8 weeks, reproduction). This compound displayed an LEL with Trichogramma cacoeciae of 115 g/ha.
